Experimental data taken from the NIST ThermoML archive (doi:10.1016/j.fluid.2016.04.009).

Experiments:
[1] = Molar enthalpy of transition or fusion; conditions: Crystal; DSC
[2] = for viscosity / mass density: 101.33 kPa; for viscosity / mass density / surface tension liquid-gas: Liquid; for viscosity: Concentric cylinders viscometry; for mass density: Vibrating tube method; for surface tension liquid-gas: Pendant drop shape; for Normal melting temperature: Crystal, DTA
[3] = refractive index (Na D-line) (dimensionless); conditions: 101.33 kPa, Liquid, Standard Abbe refractometry
[4] = molar heat capacity at constant pressure; conditions: 298.15 K; 101.33 kPa; Liquid; Drop calorimetry

CC(C)C[N+]1(C)CCCCC1.O=S(=O)([N-]S(=O)(=O)C(F)(F)F)C(F)(F)F
Conditions | Molar enthalpy of transition or fusion [kcal/mol] | Normal melting temperature [°C]
[1] | 0.574 | –
[2] | – | 14.8

Conditions | mass density [kg/m3] | refractive index | surface tension liquid-gas [mN/m] | viscosity [mPa·s]
[2], 303.15 K | 1392.9 | – | – | 125.12
[2], 308.15 K | 1388.6 | – | – | 96.4
[2], 308.2 K | – | – | 33.9 | –
[2], 313.15 K | 1384.4 | – | – | 76.03
[2], 318.15 K | 1380.1 | – | – | 60.67
[2], 318.2 K | – | – | 33.45 | –
[2], 323.15 K | 1375.9 | – | – | 49.34
[2], 328.15 K | 1371.7 | – | – | 40.71
[2], 328.2 K | – | – | 33.01 | –
[2], 333.15 K | 1367.5 | – | – | 34.11
[2], 338.15 K | 1363.3 | – | – | 28.76
[2], 338.2 K | – | – | 32.56 | –
[2], 343.15 K | 1359.1 | – | – | 24.57
[2], 343.2 K | – | – | 32.34 | –
[2], 348.15 K | 1355 | – | – | 21.18
[2], 353.15 K | 1350.8 | – | – | 18.47
[2], 358.15 K | 1346.7 | – | – | 16.14
[2], 363.15 K | 1342.7 | – | – | 14.25
[3], 288.15 K | – | 1.43387 | – | –
[3], 293.15 K | – | 1.43243 | – | –
[3], 298.15 K | – | 1.43099 | – | –
[3], 303.15 K | – | 1.42955 | – | –
[3], 308.15 K | – | 1.42812 | – | –
[3], 313.15 K | – | 1.42668 | – | –
[3], 318.15 K | – | 1.42524 | – | –
[3], 323.15 K | – | 1.42381 | – | –
[3], 328.15 K | – | 1.42237 | – | –
[3], 333.15 K | – | 1.42093 | – | –

CCCC[n+]1cccc(C)c1.O=S(=O)([N-]S(=O)(=O)C(F)(F)F)C(F)(F)F
Conditions | mass density, [2] [kg/m3] | refractive index, [3] | viscosity, [2] [mPa·s]
288.15 K | – | 1.44894 | –
293.15 K | 1418.7 | 1.44737 | 84.2
298.15 K | 1414.1 | 1.4458 | 65.74
303.15 K | 1409.4 | 1.44423 | 52.39
308.15 K | 1404.8 | 1.44266 | 42.46
313.15 K | 1400.2 | 1.44109 | 34.93
318.15 K | 1395.6 | 1.43952 | 29.13
323.15 K | 1391.1 | – | 24.59
328.15 K | 1386.6 | – | 20.97
333.15 K | 1382 | – | 18.1
338.15 K | 1377.6 | – | 15.71
343.15 K | 1373.1 | – | 13.77
348.15 K | 1368.7 | – | 12.15
353.15 K | 1364.3 | – | 10.82
358.15 K | 1359.9 | – | 9.66
363.15 K | 1355.6 | – | 8.69

Conditions | molar heat capacity at constant pressure [J/K/mol]
[4] | 578.01

CC(C)Cn1cc[n+](C)c1.O=S(=O)([N-]S(=O)(=O)C(F)(F)F)C(F)(F)F
Conditions | mass density [kg/m3] | refractive index | surface tension liquid-gas [mN/m] | viscosity [mPa·s]
[2], 293.15 K | 1442.1 | – | – | 107.35
[2], 298.15 K | 1437.2 | – | – | 81.44
[2], 298.2 K | – | – | 32.72 | –
[2], 303.15 K | 1432.4 | – | – | 63.36
[2], 308.15 K | 1427.7 | – | – | 50.3
[2], 308.2 K | – | – | 32.26 | –
[2], 313.15 K | 1422.9 | – | – | 40.69
[2], 318.15 K | 1418.2 | – | – | 33.4
[2], 318.2 K | – | – | 31.81 | –
[2], 323.15 K | 1413.5 | – | – | 27.81
[2], 328.15 K | 1408.8 | – | – | 23.46
[2], 328.2 K | – | – | 31.35 | –
[2], 333.15 K | 1404.2 | – | – | 20.05
[2], 338.15 K | 1399.5 | – | – | 17.24
[2], 338.2 K | – | – | 30.9 | –
[2], 343.15 K | 1394.9 | – | – | 14.99
[2], 343.2 K | – | – | 30.67 | –
[2], 348.15 K | 1390.3 | – | – | 13.14
[2], 353.15 K | 1385.7 | – | – | 11.63
[2], 358.15 K | 1381.1 | – | – | 10.31
[2], 363.15 K | 1376.6 | – | – | 9.22
[3], 288.15 K | – | 1.4301 | – | –
[3], 293.15 K | – | 1.42854 | – | –
[3], 298.15 K | – | 1.42699 | – | –
[3], 303.15 K | – | 1.42543 | – | –
[3], 308.15 K | – | 1.42387 | – | –
[3], 313.15 K | – | 1.42232 | – | –
[3], 318.15 K | – | 1.42076 | – | –

Conditions | molar heat capacity at constant pressure [J/K/mol]
[4] | 565.31

CC(C)C[N+]1(C)CCCC1.O=S(=O)([N-]S(=O)(=O)C(F)(F)F)C(F)(F)F
Conditions | Molar enthalpy of transition or fusion [kcal/mol] | Normal melting temperature [°C] | molar heat capacity at constant pressure [J/K/mol]
[1] | 3.13 | – | –
[2] | – | -0.2 | –
[4] | – | – | 582.08

Conditions | mass density [kg/m3] | refractive index | surface tension liquid-gas [mN/m] | viscosity [mPa·s]
[2], 293.15 K | 1404.5 | – | – | 83.61
[2], 298.15 K | 1400 | – | – | 66.29
[2], 298.2 K | – | – | 33.54 | –
[2], 303.15 K | 1395.6 | – | – | 53.53
[2], 308.15 K | 1391.2 | – | – | 43.91
[2], 308.2 K | – | – | 33.1 | –
[2], 313.15 K | 1386.8 | – | – | 36.52
[2], 318.15 K | 1382.4 | – | – | 30.75
[2], 318.2 K | – | – | 32.65 | –
[2], 323.15 K | 1378 | – | – | 26.18
[2], 328.15 K | 1373.7 | – | – | 22.52
[2], 328.2 K | – | – | 32.2 | –
[2], 333.15 K | 1369.4 | – | – | 19.57
[2], 338.15 K | 1365.2 | – | – | 17.09
[2], 338.2 K | – | – | 31.75 | –
[2], 343.15 K | 1360.9 | – | – | 15.06
[2], 343.2 K | – | – | 31.53 | –
[2], 348.15 K | 1356.7 | – | – | 13.36
[2], 353.15 K | 1352.5 | – | – | 11.95
[2], 358.15 K | 1348.3 | – | – | 10.7
[2], 363.15 K | 1344.1 | – | – | 9.65
[3], 288.15 K | – | 1.42708 | – | –
[3], 293.15 K | – | 1.42563 | – | –
[3], 298.15 K | – | 1.42418 | – | –
[3], 303.15 K | – | 1.42273 | – | –
[3], 308.15 K | – | 1.42127 | – | –
[3], 313.15 K | – | 1.41982 | – | –
[3], 318.15 K | – | 1.41837 | – | –
